Type in all cases: functional, cell-based
Experiment [1] concerns A549. Kind of experiment: Antiproliferative activity against human A549 cells at 50 uM after 24 hrs by CCK-8 assay. (Tetrazolium assays rely on reduction of a dye to a coloured formazan, in cell work by metabolically active cells.)
The subject of experiment [2] is HeLa. Kind of experiment: Antiproliferative activity against human HeLa cells at 50 uM after 24 hrs by CCK-8 assay.
The test system of experiment [3] is T-24. The experiment is described as follows: Antiproliferative activity against human T24 cells at 50 uM after 24 hrs by CCK-8 assay.
Experiment [4] deals with SH-SY5Y. The experiment is described as follows: Antiproliferative activity against human SH-SY5Y cells at 50 uM after 24 hrs by CCK-8 assay.
For experiment [5], the system named is HCT-116. The experiment is described as follows: Antiproliferative activity against human HCT116 cells at 50 uM after 24 hrs by CCK-8 assay.
The subject of experiment [6] is MCF7. The experiment is described as follows: Antiproliferative activity against human MCF7 cells at 50 uM after 24 hrs by CCK-8 assay.
For experiment [7], the system named is T-24. The experiment is described as follows: Antiproliferative activity against human T24 cells after 24 hrs by CCK-8 assay. As to conditions: T-24, 24 h.
Experiment [8] has as its system HeLa. Kind of experiment: Antiproliferative activity against human HeLa cells after 24 hrs by CCK-8 assay.
Experiment [9] relates to MCF7. The experiment is described as follows: Antiproliferative activity against human MCF7 cells after 24 hrs by CCK-8 assay. Conditions: MCF7, 24 h.
Experiment [10] deals with HCT-116. The experiment is described as follows: Antiproliferative activity against human HCT116 cells after 24 hrs by CCK-8 assay. Conditions: HCT-116, 24 h.
The test system of experiment [11] is A549. Kind of experiment: Antiproliferative activity against human A549 cells after 24 hrs by CCK-8 assay. Conditions: A549, 24 h.
Experiment [12] relates to SH-SY5Y. Kind of experiment: Antiproliferative activity against human SH-SY5Y cells after 24 hrs by CCK-8 assay.

The source made the active and inactive calls. The calls are words filed in the database; no cut-off is given here.

Consider `COc1ccc([C@]2(O)[C@H](O)C(=O)[C@@](O)(c3ccc(OC)cc3)[C@H](O)[C@H]2O)cc1`, for which the result in the experiment on A549 [1], with HeLa [2], in the experiment on T-24 [3], with SH-SY5Y [4], in the experiment on HCT-116 [5] and in the experiment with MCF7 [6] was inactive.

For `COc1ccc([C@]23O[C@](c4ccc(OC)cc4)([C@@H](O)[C@@H]2O)[C@@H](O)[C@@H]3O)cc1`, the result in the experiment on A549 [1], in the experiment with HeLa [2], in the experiment with T-24 [3], with SH-SY5Y [4], with HCT-116 [5] and in the experiment with MCF7 [6] was inactive.

Consider `COc1ccc([C@]23O[C@@H]4C2O[C@](OC)([C@H]3O)[C@]4(O)c2ccc(O)cc2)cc1`, for which the IC50 (commonly the concentration needed to halve the response being measured) with T-24 [7] was 46.6 µM; in the experiment on HeLa [8] it was 19.7 µM; in the experiment on MCF7 [9], 42.9 µM; in the experiment with HCT-116 [10], 57.1 µM; in the experiment on A549 [11], 23.1 µM; in the experiment with SH-SY5Y [12], 9.3 µM.

For `COc1ccc([C@]2(O)C(=O)[C@@]3(OC)OC2[C@@H](O)[C@@]3(O)c2ccc(OC)cc2)cc1`, the outcome in the experiment with A549 [1], with HeLa [2], in the experiment on T-24 [3], with SH-SY5Y [4], in the experiment with HCT-116 [5] and in the experiment with MCF7 [6] was inactive.
